Experimental data: article PMC6779124 (ACS infectious diseases, 2018)

Target: Stk1 kinase domain (Staphylococcus aureus, UniProt A0A0H2XGG5)
Experiment: […]-ATP autoradiography, autophosphorylation and MBP phosphorylation
Assay type: biochemical
Details: […] kinase domain, […] MBP, […] ATP, […] MnCl2, pH […] °C

**Q.** For `CN1CCN(c2ccc(Nc3nccc(-c4cnn5ncccc45)n3)cc2C#N)CC1` [CAF078, 2-(4-Methylpiperazin-1-yl)-5-((4-(pyrazolo-[1,5-b]-pyridazin-3-yl)pyrimidin-2-yl)amino)benzonitrile], which “32P-ATP autoradiography, autophosphorylation and MBP phosphorylation” value (shortened to “32P-ATP autoradiography”) is on record?
**A.** The value was “CAF052 and CAF078 robustly inhibited Stk1 kinase activity like the GW779439X control”.

**Q.** Which “32P-ATP autoradiography” value (inhibitor […]) does the source give for `CN1CCN(c2ccc(Nc3nccc(-c4cnn5ncccc45)n3)cc2F)CC1` [CAF052, N-(3-Fluoro-4-(4-methylpiperazin-1-yl)phenyl)-4-(pyrazolo[1,5-b]pyridazin-3-yl)pyrimidin-2-amine] here?
**A.** The value was “CAF052 and CAF078 robustly inhibited Stk1 kinase activity like the GW779439X control”.

**Q.** How did the “32P-ATP autoradiography” value turn out when `CN1CCN(c2ccc(Nc3nccc(-c4cnn5ncccc45)n3)cc2)CC1` [CAF045, N-(4-(4-Methylpiperazin-1-yl)phenyl)-4-(pyrazolo-[1,5-b]pyridazin-3-yl)pyrimidin-2-amine] was run?
**A.** The value was “CAF045 and CAF077, displayed an intermediate phenotype with partial Stk1 inhibition”.

**Q.** `CN1CCN(c2cccc(Nc3nccc(-c4cnn5ncccc45)n3)c2)CC1` [CAF077, N-(3-(4-Methylpiperazin-1-yl)phenyl)-4-(pyrazolo-[1,5-b]pyridazin-3-yl)pyrimidin-2-amine] was tested. Which “32P-ATP autoradiography” value did it give?
**A.** The value was “CAF045 and CAF077, displayed an intermediate phenotype with partial Stk1 inhibition”.
